Experimental data reported in patent USRE38132E1, “Phenylpyrrolidines, phenylimidazolidines,3-phenyl-1,3-oxizolidines and 3-phenyl-1,3-thiazolidines and their use in the treatment of inflammatory disease” (Boehringer Ingelheim Pharmaceuticals, Inc., priority 1997, dated 2003).
Where two headings read alike, the source gives them in different places.

Columns and labels:
[1] = tested on: cell bound fibronectin receptor (VLA4) with fibronectin, SKW3 cells; experiment: Inhibition of SKW3 cell binding to fibronectin (selectivity counter-assay); type: cell-based, human; conditions: for IC50: Homo sapiens, read-out: Assay to Detect SKW3 Cells Binding to FIBRONECTIN IC50
Description: (§1) Assay to Determine Inhibition of SKW3 cell binding to ICAM-1 vs. Binding to Fibronectin
(§2) This assay is used to test the selective ability of a test compound to antagonize the interaction of a cell bound form of LFA-1 with ICAM-1. The assay uses a human T cell line, SKW3 cells which express CD18, CD11a and other integrins not related to CD18, CD11a and which can be “activated” by phorbol esters. Phorbol esters enhance the affinity of CD18, CD11a for ICAM-1.
(§3) This same lymphocyte line, SKW3, also adheres to fibronectin in the presence of phorbol esters. This adhesion is mediated by membrane proteins independent of the LFA-1/ICAM-1 interaction. The SKW3 cells express another integrin, VLA4, which is the receptor for fibronectin. Therefore, as a preliminary indication of the selectivity of a test compounds to interfere with Leukointegrin/CAM interactions but not other integrin-ligand binding events, a compound can be tested for its ability to antagonize cell bound fibronectin receptor in its interaction with purified fibronectin. Compounds that inhibit this fibronectin adhesion are not specific antagonists of the CD18, CD11a/ICAM-1 binding.
(§4) Description of Assay Protocol:
(§5) Ninety-six well plates are coated with either sICAM-1(40 μg/mL) or fibronectin (100 μg/mL) in Diluting buffer for 1 h at room temperature. Added to the wells are 100 μL of the appropriately diluted test compound or 100 μL of RPMI with 15% fetal bovine serum as a control. SKW3 cells, which express CD18, CD11a and VLA4 (Dustin, M.; et al., J. Exp. Med. 1987, 165, 672-692) are washed and suspended to a concentration of 10^6 cells/mL in RPMI with 15% fetal bovine serum. Immediately before adding the cells to the wells, cells are stimulated with the phorbol ester 12-myristate 13-acetate (PMA) for a final concentration of […]. 100 μL of cells are then added to the wells resulting in a final concentration of […]. The plates are incubated for 2 h at 37° C. Unbound or loosely bound cells are gently washed away with RPMI.
(§6) Data are reported as the concentration or concentration range (in μM) at which 50% of binding is inhibited.

[2] = target: T1, interaction of ICAM-1 with the Leukointegrin CD18/CD11a (LFA-1) (Homo sapiens, UniProt P05107+P20701); experiment: Assay to determine inhibition of LFA-1 binding to ICAM-1 (immunopurified LFA-1 on plate-bound sICAM-1, ELISA readout)
T1 construct: endogenous in cells; sICAM-1: made in house, secreted from transfected CHO DUX cells

[3] = tested on: cell bound form of LFA-1 (CD18, CD11a) with ICAM-1, SKW3 cells; experiment: Inhibition of SKW3 cell binding to ICAM-1 (PMA-stimulated); type: cell-based, human; conditions: read-out: Assay to Detect SKW3 Cells Binding to ICAM IC50
Description: as §1, §2, §3, §4, §5, §6

[4] = No inh = no inhibition observed up to highest dose, exact quantification not always possible due to intrinsic toxicity
[5] = SKW3, values marked c: no inhibition observed up to highest dose
[6] = values marked e approximated from incomplete dose-response curve
[7] = Homo sapiens, SKW3, values marked c: no inhibition observed up to highest dose
[8] = values marked c: no inhibition observed up to highest dose

T1 sequence (P20701 26-1170): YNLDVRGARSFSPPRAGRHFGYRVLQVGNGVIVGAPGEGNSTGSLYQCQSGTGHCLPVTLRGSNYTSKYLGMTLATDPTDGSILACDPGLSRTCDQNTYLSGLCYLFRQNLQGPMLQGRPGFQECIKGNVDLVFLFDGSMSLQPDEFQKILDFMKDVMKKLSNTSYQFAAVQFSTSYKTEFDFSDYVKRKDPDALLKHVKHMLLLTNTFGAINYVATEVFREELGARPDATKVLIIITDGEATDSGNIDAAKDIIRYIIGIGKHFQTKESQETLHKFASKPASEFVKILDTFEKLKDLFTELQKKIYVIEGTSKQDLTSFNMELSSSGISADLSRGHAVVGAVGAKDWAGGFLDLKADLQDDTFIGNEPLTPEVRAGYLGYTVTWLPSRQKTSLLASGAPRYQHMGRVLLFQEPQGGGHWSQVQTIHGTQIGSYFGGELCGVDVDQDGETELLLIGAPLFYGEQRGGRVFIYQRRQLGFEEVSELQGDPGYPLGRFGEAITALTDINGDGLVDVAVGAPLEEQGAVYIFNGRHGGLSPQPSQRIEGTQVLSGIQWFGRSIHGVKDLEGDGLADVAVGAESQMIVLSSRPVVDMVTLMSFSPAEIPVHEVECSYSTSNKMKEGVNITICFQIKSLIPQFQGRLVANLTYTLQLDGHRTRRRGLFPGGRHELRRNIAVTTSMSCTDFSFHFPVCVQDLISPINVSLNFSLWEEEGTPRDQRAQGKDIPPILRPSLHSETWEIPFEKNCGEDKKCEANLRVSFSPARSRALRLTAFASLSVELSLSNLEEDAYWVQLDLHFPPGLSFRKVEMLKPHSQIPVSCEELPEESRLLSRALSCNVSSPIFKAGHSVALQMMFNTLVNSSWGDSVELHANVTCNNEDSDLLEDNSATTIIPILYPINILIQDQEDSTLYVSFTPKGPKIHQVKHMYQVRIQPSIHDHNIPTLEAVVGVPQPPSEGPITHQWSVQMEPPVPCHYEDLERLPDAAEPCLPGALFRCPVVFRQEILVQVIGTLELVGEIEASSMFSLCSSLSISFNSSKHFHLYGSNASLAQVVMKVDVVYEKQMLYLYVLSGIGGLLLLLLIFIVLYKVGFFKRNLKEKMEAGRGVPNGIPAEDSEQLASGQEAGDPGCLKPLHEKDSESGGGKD
T1 sequence (P05107 23-769): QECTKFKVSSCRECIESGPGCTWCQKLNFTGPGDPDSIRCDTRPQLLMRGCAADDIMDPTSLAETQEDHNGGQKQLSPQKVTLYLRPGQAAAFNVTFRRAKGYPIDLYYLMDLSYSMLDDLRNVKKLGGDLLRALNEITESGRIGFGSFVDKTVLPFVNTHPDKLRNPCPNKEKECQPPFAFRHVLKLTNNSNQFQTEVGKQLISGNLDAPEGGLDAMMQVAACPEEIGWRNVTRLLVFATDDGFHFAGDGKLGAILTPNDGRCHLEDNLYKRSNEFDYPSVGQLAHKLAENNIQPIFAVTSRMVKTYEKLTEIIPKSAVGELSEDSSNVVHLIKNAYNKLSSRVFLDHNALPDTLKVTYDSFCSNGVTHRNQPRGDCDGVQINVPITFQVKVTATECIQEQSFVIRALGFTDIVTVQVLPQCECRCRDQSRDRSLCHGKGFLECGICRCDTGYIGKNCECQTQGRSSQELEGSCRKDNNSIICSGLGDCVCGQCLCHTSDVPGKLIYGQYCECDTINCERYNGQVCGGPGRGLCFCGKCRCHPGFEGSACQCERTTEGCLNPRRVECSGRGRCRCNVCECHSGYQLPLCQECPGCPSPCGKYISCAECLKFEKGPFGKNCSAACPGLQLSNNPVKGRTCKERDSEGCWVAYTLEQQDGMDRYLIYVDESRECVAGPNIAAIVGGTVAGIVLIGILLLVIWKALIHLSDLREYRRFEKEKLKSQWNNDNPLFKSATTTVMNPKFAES

| Compound | Cellular Toxicity Assay MTT LD50 (SKW3 cells) [µM] | Kd [2, 6] [µM] | IC50 [3, 7] [µM] | further results |
| --- | --- | --- | --- | --- |
| C[C@@]1(Cc2ccc(Br)cc2)C(=O)N(c2cc(Cl)cc(Cl)c2)C(=O)N1C(=O)CO [Example 231] | 40 to 80 | – | – | Assay to Detect SKW3 Cells Binding to FIBRONECTIN IC50 [1, 4]: No inh^c; Kd [2]: 0.27 µM; IC50 ([3]; Homo sapiens, SKW3): 2 to 5 µM |
| C[C@@H](c1ccccc1)[C@@H]1C(=O)N(c2cc(Cl)cc(Cl)c2)C(=O)N1C [Example 86] | >500 | 0.53 | 19 to 38 | IC50 [1, 5]: > 75 µM |
| CC1(Cc2c[nH]c3ccccc23)NC(=O)N(c2cc(Cl)cc(Cl)c2)C1=O (stereo not drawn) [Example 28] | 100 to 200 | 2.59 | – | Assay to Detect SKW3 Cells Binding to FIBRONECTIN IC50 [1, 8]: No inh^c |
| CN1C(=O)N(c2cc(C(F)(F)F)cc(C(F)(F)F)c2)C(=O)[C@]1(C)Cc1ccccc1 [Example 268] | 250 to 500 | – | – | Kd [2]: 1.59 µM |
| C[C@@H](c1ccccc1)[C@@]1(C)C(=O)N(c2cc(Cl)cc(Cl)c2)C(=O)N1C [Example 270] | 250 to 500 | – | – | Kd [2]: 0.65 µM |
| O=C1NC(Cc2ccc([N+](=O)[O-])cc2)C(=O)N1c1cc(Cl)cc(Cl)c1 (stereo not drawn) [Example 24] | >400 | 0.85 | – | Assay to Detect SKW3 Cells Binding to FIBRONECTIN IC50 [1, 8]: No inh^c; IC50 [3, 8]: > 60 µM |
| O=C1NC(Cc2ccccc2)C(=O)N1c1cc(Cl)cc(Cl)c1 (stereo not drawn) [Example 20] | 125 to 250 | 1.76 | 16 | IC50 [1, 5]: 63 to 125 µM |
| COc1ccc(CC2NC(=O)N(c3cc(Cl)cc(Cl)c3)C2=O)cc1 (stereo not drawn) [Example 8] | 125 to 500 | 2.86 | – | – |
| C[C@@]1(Cc2ccc(Br)cc2)C(=O)N(c2cc(Cl)cc(Cl)c2)C(=O)N1CCCCCS(=O)(=O)O [Example 251] | 100 to 200 | – | – | Assay to Detect SKW3 Cells Binding to FIBRONECTIN IC50 [1, 4]: No inh^c; Kd [2]: 0.06 µM; IC50 ([3]; Homo sapiens, SKW3): < 0.5 µM |
| O=C1NC(CCc2ccccc2)C(=O)N1c1cc(Cl)cc(Cl)c1 (stereo not drawn) [Example 12] | 125 to 250 | 1.75 | – | – |
| C[C@H](c1ccccc1)[C@]1(C)C(=O)N(c2cc(Cl)cc(Cl)c2)C(=O)N1C [Example 269] | 250 to 500 | – | – | Assay to Detect SKW3 Cells Binding to FIBRONECTIN IC50 [1, 4]: No inh^c; Kd [2]: 0.29 µM; IC50 ([3]; Homo sapiens, SKW3): 25 µM |
| CN1C(=O)N(c2cc(Cl)cc(Cl)c2)C(=O)[C@@]1(C)Cc1ccc(-c2ccncc2)cc1 [Example 189] | 63 | 0.19 | 0.6 to 1.2 | Assay to Detect SKW3 Cells Binding to FIBRONECTIN IC50 [1, 8]: No inh^c |
| O=C1N[C@@H](Cc2ccccc2)C(=O)N1c1cc(Cl)cc(Cl)c1 [Example 14] | 125 to 250 | 12.7 | 63 to 125 | IC50 [1, 5]: > 125 µM |
| C[C@@H](c1ccccc1)[C@H]1NC(=O)N(c2cc(Cl)cc(Cl)c2)C1=O [Example 22] | 125 to 250 | 0.4 | < 16 | Assay to Detect SKW3 Cells Binding to FIBRONECTIN IC50 [1, 8]: No inh^c |
| O=C1NC(Cc2ccc(O)cc2)C(=O)N1c1cc(Cl)cc(Cl)c1 (stereo not drawn) [Example 5] | 250 to 500 | 15.4 | – | – |
| CN1C(=O)N(c2cc(Cl)cc(Cl)c2)C(=O)C1Cc1ccccc1 (stereo not drawn) [Example 82] | 250 to 500 | 2.1 | 63 to 125 | IC50 [1, 5]: > 250 µM |
| O=C1NC(Cc2ccc3ccccc3c2)C(=O)N1c1cc(Cl)cc(Cl)c1 (stereo not drawn) [Example 17] | 125 | 3.01 | > 63 | Assay to Detect SKW3 Cells Binding to FIBRONECTIN IC50 [1, 8]: No inh^c |
| C[C@@]1(Cc2ccccc2)NC(=O)N(c2cc(Cl)cc(Cl)c2)C1=O [Example 2] | 125 to 250 | 14.4 | > 100 | IC50 [1, 5]: > 100 µM |
| C[C@@]1(Cc2ccc([N+](=O)[O-])cc2)C(=O)N(c2cc(Cl)cc(Cl)c2)C(=O)N1S(C)(=O)=O [Example 136] | 150 to 300 | 0.19 | 0.6 to 1 | Assay to Detect SKW3 Cells Binding to FIBRONECTIN IC50 [1, 8]: No inh^c |
| CCCN1C(=O)N(c2cc(Cl)cc(Cl)c2)C(=O)C1(C)Cc1ccccc1 (stereo not drawn) [Example 90] | >500 | 0.73 | 50 to 100 | Assay to Detect SKW3 Cells Binding to FIBRONECTIN IC50 [1, 8]: No inh^c |
| CN1C(=O)N(c2cc(C(F)(F)F)cc(C(F)(F)F)c2)C(=O)[C@@]1(C)Cc1ccccc1 [Example 267] | 250 | – | – | Kd [2]: 0.4 µM |
| C[C@@]1(Cc2ccc(Br)cc2)C(=O)N(c2cc(Cl)cc(Cl)c2)C(=O)N1CCCCN [Example 241] | 9 to 18 | – | – | IC50 ([1]; SKW3, No inh = no inhibition observed up to highest dose, exact quantification not always possible due to intrinsic toxicity): 13 µM; Kd [2]: 0.1 µM; IC50 ([3]; Homo sapiens, SKW3): 0.8 to 1.6 µM |
| O=C1NC(Cc2ccccc2O)C(=O)N1c1cc(Cl)cc(Cl)c1 (stereo not drawn) [Example 3] | 125 to 250 | 3 | – | – |
| CN1C(=O)N(c2cc(Cl)cc(Cl)c2)C(=O)C1(C)Cc1ccc(Br)cc1 (stereo not drawn) [Example 138] | 250 to 500 | – | 6 | Assay to Detect SKW3 Cells Binding to FIBRONECTIN IC50 [1, 8]: No inh^c |
| C[C@H](c1ccccc1)[C@H]1NC(=O)N(c2cc(Cl)cc(Cl)c2)C1=O [Example 21] | 125 to 250 | 0.69 | < 16 | IC50 [1, 5]: 125 to 250 µM |
| O=C1NC(Cc2cccc(O)c2)C(=O)N1c1cc(Cl)cc(Cl)c1 (stereo not drawn) [Example 4] | 250 to 500 | 9.32 | – | – |
| CN1C(=O)N(c2cc(Cl)cc(Cl)c2)C(=O)[C@]1(C)Cc1ccc(Br)cc1 [Example 272] | 250 to 500 | – | – | Assay to Detect SKW3 Cells Binding to FIBRONECTIN IC50 [1, 4]: No inh^c; IC50 ([3]; Homo sapiens, SKW3): 50 to 100 µM |
| CC1(Cc2ccc(O)cc2)NC(=O)N(c2cc(Cl)cc(Cl)c2)C1=O (stereo not drawn) [Example 9] | 250 to 500 | 7.87 | – | – |
| O=C1NC(c2ccccc2)C(=O)N1c1cc(Cl)cc(Cl)c1 (stereo not drawn) [Example 6] | 250 to 500 | 12.8 | – | – |
